For data set [1] the following is noted: water and polar solvents such as methanol and acetonitrile; cited from earlier work.
Data set [2] deals with IL-33 mRNA. The following applies: distal small intestine, 6 h after oral DON gavage 25 mg/kg, vs control mice.
For data set [3], the system named is Caco-2 cells. The data set is described as follows: IL-33 in DON-stimulated Caco-2 cells. In kind it is cell-based. The following applies: data not shown.
The subject of data set [4] is IL-33. Description: systemic IL-33 measured by ELISA in mice serum. In kind it is in vivo. The following applies: DON gavage; data not shown. For orientation: In an ELISA, binding on a coated surface is turned into a signal by an enzyme label.
The subject of data set [5] is whey protein allergy response. The following applies: C3H/HeOuJ mice sensitized with low or high dose DON with or without whey; FIG. 2.
In data set [6] the test system is IL-33. The following applies: distal small intestine after DON gavage, vs control mice.

We go through one compound from patent US20170209472A1, “PREVENTION OR TREATMENT OF FOOD ALLERGY IN INFANTS AND TODDLERS” (N.V. Nutricia, priority 2014, published 2017).

Each structure is given as a SMILES string.

As to `CC1=C[C@H]2O[C@@H]3[C@H](O)C[C@](C)([C@@]2(CO)[C@H](O)C1=O)[C@]31CO1` [DON, (3α, 7α)-3,7,15-trihydroxy-12,13-epoxytrichothec-9-en-8-one], in data set [1], the solubility entry is reported as “soluble”. Besides, the “IL-33 mRNA expression” value in data set [2] is listed as “increase”. In data set [3], the “IL-33 levels in the supernatant” value was “did not induce increased” and the “IL-33 mRNA expression levels” value is reported as “did not induce increased”. The “systemic IL-33 in serum” value in data set [4] was “neither affected”. In addition, the “whey protein allergy response (ear swelling)” value in data set [5] is “significantly increases”. The “IL-33 production (immunohistochemistry)” value in data set [6] is “obviously increased”.
